In patent US20220023436A1, “COMBINATION OF ANTIBODY-DRUG CONJUGATE WITH PARP INHIBITOR” (DAIICHI SANKYO COMPANY, LIMITED, priority 2018, published 2022):
Read-outs that look alike come from different tables or passages of the source.

What was measured:
[1] = test system: Human breast cancer cell line JIMT-1; settings: mouse, in vivo
Procedure: Measurement and calculation formula: In all studies, the major axis and minor axis of tumors were measured twice a week with an electronic digital caliper (CD15-CX, Mitutoyo Corp.), and the tumor volume (mm^3) was calculated.
(§4) Tumor volume (mm^3)=1/2×Major axis (mm)×[Minor axis (mm)]^2
(§5) The HER2-ADC (1) was diluted with ABS buffer (10 mM acetate buffer [pH 5.5], 5% sorbitol), and intravenously administered in a fluid volume of 10 mL/kg to the tail vein. […] Talazoparib was dissolved with DMSO, diluted with 0.5% hydroxypropyl methylcellulose, and orally administered in a fluid volume of 10 mL/kg.
Human breast cancer cell line JIMT-1, which was purchased from DSMZ (Deutsche Sammlung von Mikroorganismen and Zellkulturen GmbH), was suspended into physiological saline, subcutaneously transplanted at 5×10^6 cells into the right side of female nude mice, and the mice were randomly grouped 10 days after the transplantation (Day 0). The HER2-ADC (1) was intravenously administered to the tail vein at a dose of 10 mg/kg on Day 0. […] Single administration groups of each drug, a combined administration group, and a solvent administration group as a control group were set up.

[2] = test system: Human breast cancer cell line KPL-4; format: in vivo, BALB/c nude mice
Procedure: The calculation formula is as shown below.
Human breast cancer cell line KPL-4 [British Journal of Cancer, (1999) 79 (5/6).
Incidentally, in the following evaluation examples relating to antitumor studies, unless otherwise described, the studies are performed by the procedure used in this evaluation example.

[3] = test system: Human breast cancer cell line MX-1; format: in vivo; settings: MX-1 s.c. in nude mice; HER2-ADC (1) 3 mg/kg iv Day 0; olaparib 100 mg/kg po, talazoparib 0.4 mg/kg po once a day, five times a week, two weeks
Procedure: (§6) Talazoparib was dissolved with dimethyl acetamide, diluted with 5% Kolliphor HS15/Dulbecco's phosphate-buffered saline, and orally administered in a fluid volume of 10 mL/kg.
Human breast cancer cell line MX-1, which was purchased from CLS (Cell Lines Service), was suspended into 50% Matrigel matrix, subcutaneously transplanted at 5×10^6 cells into the right side of female nude mice, and the mice were randomly grouped 13 days after the transplantation (Day 0). The HER2-ADC (1) was intravenously administered to the tail vein at a dose of 3 mg/kg on Day 0. […] Single administration groups of each drug, a combined administration group, and a solvent administration group as a control group were set up.

[4] = test system: Human breast cancer cell line HCC70; assay: Antitumor study (7), subcutaneously transplanted HCC70 cells, HER3-ADC (1); format: in vivo; settings: HCC70 s.c. in nude mice; HER3-ADC (1) 10 mg/kg iv Day 0, 7, 14; olaparib 100 mg/kg po, talazoparib 0.4 mg/kg po once a day, five times a week, two weeks
Procedure: as §6
(§7) In Examples 16 and 17, HER3-ADC (1) was diluted with ABS buffer (10 mM acetate buffer (pH 5.5), 5% sorbitol), and intravenously administered in a fluid volume of 10 mL/kg to the tail vein.
Human breast cancer cell line HCC70 was suspended into physiological saline, subcutaneously transplanted at 1×10^7 cells into the right side of female nude mice, and the mice were randomly grouped 13 days after the transplantation (Day 0). The HER3-ADC (1) was intravenously administered to the tail vein at a dose of 10 mg/kg on Day 0, Day 7 and Day 14. […] Single administration groups of each drug, a combined administration group, and a solvent administration group as a control group were set up.

[5] = test system: Human breast cancer cell line MX-1; assay: Antitumor study (6), subcutaneously transplanted MX-1 cells, HER3-ADC (1); format: in vivo; settings: MX-1 s.c. in nude mice; HER3-ADC (1) 3 mg/kg iv Day 0, 7, 15; olaparib 100 mg/kg po, talazoparib 0.4 mg/kg po once a day, five times a week, two weeks
Procedure: as §6, §7
Human breast cancer cell line MX-1 was suspended into 50% Matrigel matrix, subcutaneously transplanted at 5×10^6 cells into the right side of female nude mice, and the mice were randomly grouped 13 days after the transplantation (Day 0). The HER3-ADC (1) was intravenously administered to the tail vein at a dose of 3 mg/kg on Day 0, Day 7 and Day 15. […] Single administration groups of each drug, a combined administration group, and a solvent administration group as a control group were set up.

[6] = test system: Human gastric cancer cell line NCI-N87; format: in vivo, BALB/c nude mice; settings: NCI-N87 s.c. in nude mice; HER2-ADC (1) 1 mg/kg iv Day 0; olaparib 50 mg/kg, talazoparib 0.4 mg/kg once a day, five times a week, two weeks
Procedure: (§8) Measurement and calculation formula: In all studies, the major axis and minor axis of tumors were measured twice a week with an electronic digital caliper (CD15-CX, Mitutoyo Corp.), and the tumor volume (mm^3) was calculated. The calculation formula is as shown below.
as §4
Talazoparib was dissolved with DMSO, diluted with 0.5% hydroxypropyl methylcellulose, and orally administered in a fluid volume of 10 mL/kg.
Human gastric cancer cell line NCI-N87, which was purchased from ATCC (American Type Culture Collection), was suspended into physiological saline, subcutaneously transplanted at 1×10^7 cells into the right side of female nude mice, and the mice were randomly grouped 6 days after the transplantation (Day 0). […] Single administration groups of each drug, a combined administration group, and a solvent administration group as a control group were set up.

[7] = test system: Human breast cancer cell line HCC1806; settings: mouse, in vivo
Procedure: as §8, §4
Tumor growth inhibition (TGI) was calculated in accordance with the following calculation formula.
(§9) Tumor growth inhibition (%)=100×(1−T/C) • T: Average tumor volume of mice of test substance administration group • C: Average tumor volume of mice of control group
Rucaparib (camsylate) was dissolved with DMSO, diluted with physiological saline, and orally administered in a fluid volume of 10 mL/kg. Talazoparib was dissolved with DMSO, diluted with 10% N,N-Dimethylacetamide/5% Kolliphor HS 15/Dulbecco's Phosphate-Buffered Saline, and orally administered in a fluid volume of 10 mL/kg.
Human breast cancer cell line HCC1806, which was Purchased from ATCC, was suspended into physiological saline, subcutaneously transplanted at 1×10^6 cells into the right side of female nude mice, and the mice were randomly grouped 10 days after the transplantation (Day 0). […] Single administration groups of each drug, a combined administration group, and a solvent administration group as a control group were set up, and tumor growth inhibition (TGI) on Day 21 was calculated.

[8] = test system: Human ovarian cancer cell line SK-OV-3; format: in vivo, BALB/c nude mice; settings: SK-OV-3 s.c. in nude mice; HER2-ADC (1) 3 mg/kg iv Day 0 and Day 14; olaparib 60 mg/kg, talazoparib 0.4 mg/kg once a day, five times a week, three weeks
Procedure: as §8, §4, §5
Human ovarian cancer cell line SK-OV-3 cells, which were purchased from ATCC (American Type Culture Collection), were maintained by nude mouse transplantation, subcutaneously transplanted in the form of a tumor mass of solid tumor (3×3×3 mm) into the right side of female nude mice, and the mice were randomly grouped 19 days after the transplantation (Day 0). HER2-ADC (1) was intravenously administered to the tail vein at a dose of 3 mg/kg on Day 0 and Day 14. […] Single administration groups of each drug, a combined administration group, and a solvent administration group as a control group were set up.

[9] = test system: Human ovarian cancer cell line OV-90; assay: Antitumor study (9), subcutaneously transplanted OV-90 cells, CDH6-ADC (1); settings: OV-90 model, Day 17 after administration, single administration group; cachexia-like weight loss when tumor size exceeds 1500 mm^3
Procedure: as §8, §9
Talazoparib was dissolved with DMSO, diluted with 0.5% hydroxypropyl methylcellulose, and orally administered in a fluid volume of 10 mL/kg. […] Veliparib was dissolved with a 0.05M CH COON solution and orally administered in a fluid volume of 10 mL/kg.
Human ovarian cancer cell line OV-90, which was purchased from ATCC, was suspended into physiological saline, subcutaneously transplanted at 1×10^7 cells into the right side of female nude mice, and the mice were randomly grouped 14 days after the transplantation (Day 0). […] Single administration groups of each drug, a combined administration group, and a solvent administration group as a control group were set up.

[10] = test system: Human lung cancer cell line EBC-1; format: cell-based; settings: EBC-1 cell line
Procedure: (§1) For combination effects, differences between estimates of additive effects from the Loewe model (Greco W R. et al., Pharmacol. Rev. 1995 June; 47 (2): 331-85) and cell growth inhibition rates (%) subjected to sigmoid fitting were converted to matrices, and Synergy Scores were calculated from the matrix elements using a method described in the reference (Lehar J. et al., Nat Biotechnol. 2009 July; 27 (7):659-66). Besides, Synergy Score=0 indicates an additive effect; Synergy Score>0 indicates a synergistic effect; and Synergy Score<0 indicates an antagonistic effect.
(§2) Human lung cancer cell line EBC-1, which was obtained from Health Science Research Resources Bank (current Japanese Collection of Research Bioresources [JCRB] Cell Bank), was used for evaluation. […] Then, EBC-1 cells suspended at 2×10^4 cells/mL with RPMI1640 Medium containing 10% fetal bovine serum were seeded at 2.5 μL/well, and cultured at 37° C. under 5%CO2 for 6 days. After culturing, a solution of CellTiter-Glo 2.0 Assay diluted with an equivalent volume of Glo Lysis buffer, 1× was added at 2 μL/well and subjected to incubation at room temperature for an hour, followed by measurement of luminescence intensity of each well.

[11] = test system: Human breast cancer cell line KPL-4; format: cell-based; settings: KPL-4 cell line
Procedure: as §1
as §2, with “breast” for “lung”, “KPL-4,” for “EBC-1,”, “Dr. Junichi Kurebayashi in Kawasaki Medical School [British Journal” for “Health Science Research Resources Bank (current Japanese Collection”, “Cancer, (1999) 79 (5/6). 707-717],” for “Research Bioresources [JCRB] Cell Bank),”, “KPL-4” for “EBC-1”, “1×10^4” for “2×10^4”

[12] = test system: Human pancreatic cancer cell line BxPC-3; format: cell-based; settings: BxPC-3 cell line
Procedure: as §1
(§3) Human pancreatic cancer cell line BxPC-3, which was obtained from ATCC, was used for evaluation. […] Then, BxPC-3 cells suspended at 4×10^4 cells/mL with RPMI1640 Medium containing 10% fetal bovine serum were seeded at 2.5 μL/well, and cultured at 37° C. under 5%CO2 for 6 days. After culturing, a solution of CellTiter-Glo 2.0 Assay (Promega) diluted with an equivalent volume of Glo Lysis buffer, 1× (Promega) was added at 2 μL/well and subjected to incubation at room temperature for an hour, followed by measurement of luminescence intensity of each well.

[13] = test system: Human breast cancer cell line HCC70; format: cell-based
Procedure: as §1
as §3, with “breast” for “pancreatic”, “HCC70,” for “BxPC-3,”, “HCC70” for “BxPC-3”, “Assay” for “Assay (Promega)”, “1×” for “1× (Promega)”

[14] = test system: Human gastric cancer cell line NCI-N87; format: cell-based
Procedure: Human gastric cancer cell line NCI-N87, which was obtained from ATCC (American Type Culture Collection), was used for evaluation. […] Then, NCI-N87 cells suspended at 4×10^4 cells/mL with RPMI1640 Medium containing 10% fetal bovine serum were seeded at 2.5 μL/well, and cultured at 37° C. under 5%CO2 for 6 days.
After culturing, a solution of CellTiter-Glo 2.0 Assay (Promega) diluted with an equivalent volume of Glo Lysis buffer, 1× (Promega) was added at 2 μL/well and subjected to incubation at room temperature for an hour, followed by measurement of luminescence intensity of each well.
Cell growth inhibition rate […] in each condition was calculated using the following formula: […]
T: average luminescence intensity of wells added with each sample
B: average luminescence intensity of wells added with DMSO and medium
C: average luminescence intensity of wells added with DMSO and cells
Furthermore, sigmoid fitting was performed for the concentration-dependent transition of cell growth inhibition rate in each combination condition using Genedata Screener Analyzer Version 14 (Genedata, hereinafter referred to as Screener).
as §1

[15] = KPL-4 s.c. in nude mice, last day of study, HER2-ADC (1) 7.5 mg/kg iv Day 0, olaparib 50 mg/kg ip, niraparib 50 mg/kg po, talazoparib 0.4 mg/kg po, rucaparib (camsylate) 150 mg/kg po, once a day, five times a week, two weeks
[16] = 6 days, rucaparib (phosphate), >0 synergistic
[17] = all combinations with olaparib, talazoparib, rucaparib, niraparib

`Cn1ncnc1[C@H]1c2n[nH]c(=O)c3cc(F)cc(c23)N[C@@H]1c1ccc(F)cc1` [talazoparib] was tested. Which “TGI, single administration” value [1] did it give?
The value was 13%.

And the “tumor growth inhibition (TGI), single administration” value (from here on “tumor growth inhibition (TGI)”) [2, 15]?
The value was 31%.

What about the “TGI, single administration” value [3] of the same compound?
Its value is 47%.

What about the “TGI, single administration” value [4] of the same compound?
Its value is 19%.

And the “TGI, single administration” value [5]?
The value was 49%.

What about the “TGI, single administration” value [6] of the same compound?
Its value is -2%.

What about the “TGI, single administration” value [7] of the same compound?
Its value is 27%.

And the “TGI, single administration” value [8]?
Its value is 12%.

`O=C(c1cc(Cc2n[nH]c(=O)c3ccccc23)ccc1F)N1CCN(C(=O)C2CC2)CC1` [olaparib] was tested. Which “tumor growth inhibition (TGI)” value [2, 15] did it give?
Its value is 21%.

And the “TGI, single administration” value [3]?
Its value is 44%.

And the “TGI, single administration” value [4]?
The value was 18%.

What about the “TGI, single administration” value [5] of the same compound?
The value was 23%.

What about the “TGI, single administration” value [6] of the same compound?
Its value is 26%.

What about the “TGI, single administration” value [8] of the same compound?
The value was 15%.

What does the source list for `CNCc1ccc(-c2[nH]c3cc(F)cc4c3c2CCNC4=O)cc1` [rucaparib]?
tumor growth inhibition (TGI), single administration [2, 15]: 42%; mice euthanized due to weight loss [9]: 1 case out of 6 cases

Which results are given for `CC[C@@]1(O)C(=O)OCc2c1cc1n(c2=O)Cc2c-1nc1cc(F)c(C)c3c1c2[C@@H](NC(=O)CO)CC3` [Compound (1)]?
Synergy Score of combination with Niraparib ([10]; 6 days, >0 synergistic): 3.17; Synergy Score of combination with Olaparib ([10]; 6 days, >0 synergistic): 3.39; Synergy Score of combination with Talazoparib ([10]; 6 days, >0 synergistic): 5.66; Synergy Score of combination with Rucaparib [10, 16]: 4.41; combination effect in cell growth inhibition study [10, 17]: synergistic effects; Synergy Score of combination with Niraparib ([11]; 6 days, >0 synergistic): 3.68; Synergy Score of combination with Olaparib ([11]; 6 days, >0 synergistic): 3.97; Synergy Score of combination with Talazoparib ([11]; 6 days, >0 synergistic): 4.86; Synergy Score of combination with Rucaparib [11, 16]: 4.97; combination effect in cell growth inhibition study [11, 17]: synergistic effects; Synergy Score of combination with Niraparib ([12]; 6 days, >0 synergistic): 1.85; Synergy Score of combination with Olaparib ([12]; 6 days, >0 synergistic): 1.56; Synergy Score of combination with Talazoparib ([12]; 6 days, >0 synergistic): 3.25; Synergy Score of combination with Rucaparib [12, 16]: 2.15; combination effect in cell growth inhibition study [12, 17]: synergistic effects; Synergy Score of combination with Niraparib ([13]; 6 days, >0 synergistic): 1.61; Synergy Score of combination with Olaparib ([13]; 6 days, >0 synergistic): 1.98; Synergy Score of combination with Talazoparib ([13]; 6 days, >0 synergistic): 4.61; Synergy Score of combination with Rucaparib [13, 16]: 2.48; combination effect in cell growth inhibition study [13, 17]: synergistic effects; Synergy Score of combination with Niraparib ([14]; 6 days, >0 synergistic): 1.23; Synergy Score of combination with Talazoparib ([14]; 6 days, >0 synergistic): 4.58; Synergy Score of combination with Olaparib ([14]; 6 days, >0 synergistic, 0 additive, <0 antagonistic): 3.21; Synergy Score of combination with Rucaparib [14, 16]: 1.93; combination effect in cell growth inhibition study [14, 17]: synergistic effects

Which “tumor growth inhibition (TGI)” value ([2]; mouse, in vivo) does the source give for `NC(=O)c1cccc2cn(-c3ccc([C@@H]4CCCNC4)cc3)nc12` [niraparib] here?
The value was 39%.

What about the “mice euthanized due to weight loss” value [9] of the same compound?
The value was 1 case out of 6 cases.
